Earlier results as cited in patent publication US5380533A, “Gastroresistant pharmaceutical formulations for oral administration containing bile acids” (Alfa Wassermann S.p.A., priority 1991, dated 1995).
In brackets after ≈: the same amount, converted by molar mass.

What was measured:
[1] = intestinal pH below 8.4; intestinal bacterial flora
[2] = after having crossed unabsorbed and undissolved the stomach
[3] = free bile acid
[4] = pH units

For `C[C@H](CCC(=O)O)[C@H]1CC[C@H]2[C@@H]3[C@@H](O)C[C@@H]4C[C@H](O)CC[C@]4(C)[C@H]3CC[C@]12C` [ursodeoxycholic acid], the “fate of a portion at lower values of intestinal pH” value [1] is given as “is not absorbed and undergoes a biotransformation to lithocholic acid”, the “dissolution in the intestine” value [2] is given as “dissolve very slowly in the intestine” and the water solubility [3] is given as 53 µM (≈ 20.8 µg/mL). For the same molecule, the “pH at which complete solubilization takes place” value [4] was 8.47.
